For this experiment, the target named is T1, human C5aR(CD88) (Homo sapiens, UniProt P21730).
T1 construct: expressed in transfected cells; host or cells: rat basophilic leukemia cells (RBL)
T1 sequence (P21730 1-350): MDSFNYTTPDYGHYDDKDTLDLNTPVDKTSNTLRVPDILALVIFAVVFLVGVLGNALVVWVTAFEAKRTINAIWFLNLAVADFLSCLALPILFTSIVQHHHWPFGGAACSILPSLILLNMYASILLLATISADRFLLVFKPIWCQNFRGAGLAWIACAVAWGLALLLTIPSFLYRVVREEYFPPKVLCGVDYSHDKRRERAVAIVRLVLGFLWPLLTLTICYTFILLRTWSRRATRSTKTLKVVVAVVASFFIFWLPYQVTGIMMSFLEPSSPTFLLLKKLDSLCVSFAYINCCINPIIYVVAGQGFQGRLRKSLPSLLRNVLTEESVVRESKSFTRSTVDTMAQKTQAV
Nature of the experiment: Determination of the IC50 value in an enzyme release assay (functional assay, antagonistic activity). It is filed as cell-based. The note with it: for inhibitory activity (in words): functional assay of example 11, noteworthy = IC50 less than 200 nM.

[1] abbreviates: antagonistic activity, IC50 group in enzyme release assay, RBL cells expressing human C5aR(CD88), read-out: activity (group).

The structures appear in SMILES notation. Like-named read-outs stand apart in the source and are kept apart here. Starred links: 1 amine or outer side, 2 acyl side, 3 side chain; linkers in the order of their positions; H or OH if unused. Positions of bridges follow the written chain, without caps; N, C: chain ends. Non-standard residues stand in square brackets, D forms with d. Residues, ends and D or L forms follow the SMILES beside them. Groups on a side chain read outwards from the residue. *: point of attachment. Decanoyl(3,6,9-trioxa) = COCCOCCOCC(=O)*; Phe(4-NH2) = Nc1ccc(C[C@H](N)C(=O)O)cc1; Phe(4-Me) = Cc1ccc(C[C@H](N)C(=O)O)cc1; 2Nal = N[C@@H](Cc1ccc2ccccc2c1)C(=O)O; His(τ-Me) = Cn1cnc(C[C@H](N)C(=O)O)c1; Hyp = O=C(O)[C@@H]1C[C@@H](O)CN1; 4Pal = N[C@@H](Cc1ccncc1)C(=O)O; Cha = N[C@@H](CC1CCCCC1)C(=O)O; dCha = N[C@H](CC1CCCCC1)C(=O)O; NHCH2CH(OH)CH2OH = OCC(O)CN*; hLeu = CC(C)CC[C@H](N)C(=O)O; Nle = CCCC[C@H](N)C(=O)O; Orn = NCCC[C@H](N)C(=O)O; Pra = C#CC[C@H](N)C(=O)O; Nva = CCC[C@H](N)C(=O)O; CO = O=C([*:1])[*:2]

In the case of `CCCC[C@@H]1NC(=O)[C@H](Cc2c[nH]c3ccccc23)NC(=O)[C@@H](CC2CCCCC2)NC(=O)[C@@H]2CCCN2C(=O)[C@@H](NC(=O)[C@H](Cc2ccccc2)NC(=O)CON=CC(O)C(O)C(O)C(O)CO)CCCNC1=O` (single isomer, unassigned) [Compound 334, Fck-Phe-[Orn-Pro-cha-Trp-Nle]], the IC50 under setting [1] lay in the range of 50 to 200 nM.

`CC(=O)N[C@@H](Cc1ccccc1)C(=O)N[C@@H](CCCCN)C(=O)N[C@@H](C)C(=O)N[C@@H](CC1CCCCC1)C(=O)N[C@@H](C)C(=O)N[C@@H](CC(C)C)C(=O)N[C@H](C)C(=O)N[C@@H](Cc1ccc(O)cc1)C(=O)O` [Ac-Phe-Lys-Ala-Cha-Ala-Leu-ala-Tyr-OH, reference compound] (Ac-FKA[Cha]AL[dA]Y-OH): the IC50 (functional assay as used in this application, values in text, read-out: IC50) came to 1300 nM.

On to `COCCOCCOCC(=O)O[C@@H]1C[C@H]2C(=O)N[C@H](CC3CCCCC3)C(=O)N[C@@H](Cc3c[nH]c4ccccc34)C(=O)N[C@@H](Cc3ccccc3)C(=O)NCCC[C@H](NC(=O)[C@H](Cc3ccccc3)NC(C)=O)C(=O)N2C1` [Ac-Phe-[Orn-Hyp(COCH2OCH2CH2OCH2CH2OCH3)-cha-Trp-Phe]] (Ac-F[Orn][Hyp](Decanoyl(3,6,9-trioxa))[dCha]WF; lactam 2-C), for which the “inhibitory activity (in words)” value is “noteworthy inhibitory activity”.

For the compound `CC(=O)N[C@@H](Cc1ccccc1)C(=O)N[C@H]1CCCNC(=O)[C@H](Cc2ccncc2)NC(=O)[C@H](Cc2c[nH]c3ccccc23)NC(=O)[C@@H](CC2CCCCC2)NC(=O)[C@@H]2CCCN2C1=O` [Ac-Phe-[Orn-Pro-cha-Trp-Ppa]] (Ac-F[Orn]P[dCha]W[4Pal]; lactam 2-C), the “inhibitory activity (in words)” value is recorded as “noteworthy inhibitory activity”.

For the compound `CC(=O)N[C@@H](Cc1ccccc1)C(=O)N[C@H]1CCCNC(=O)[C@H](Cc2ccccc2)NC(=O)[C@H](Cc2c[nH]c3ccccc23)NC(=O)[C@@H](CC2CCCCC2)NC(=O)[C@H](CO)NC1=O` [Ac-Phe-[Orn-Ser-cha-Trp-Phe]] (Ac-F[Orn]S[dCha]WF; lactam 2-C), the “inhibitory activity (in words)” value is given as “noteworthy inhibitory activity”.

As to `CCCC[C@@H]1NC(=O)[C@H](Cc2c[nH]c3ccccc23)NC(=O)[C@@H](CC2CCCCC2)NC(=O)[C@@H]2C[C@@H](OC(=O)COCCOCCOC)CN2C(=O)[C@@H](NC(=O)[C@H](Cc2ccccc2)NC(C)=O)CCCNC1=O` [Compound 5, Ac-Phe-[Orn-Hyp(COCH2OCH2CH2OCH2CH2OCH3)-cha-Trp-Nle]] (Ac-F[Orn][Hyp](Decanoyl(3,6,9-trioxa))[dCha]W[Nle]; lactam 2-C), the IC50 under setting [1] lay in the range of 50 to 200 nM.

Take `CCCC[C@@H]1NC(=O)[C@H](Cc2c[nH]c3ccccc23)NC(=O)[C@@H](CC2CCCCC2)NC(=O)[C@@H]2C[C@@H](OC(=O)NCC(O)CO)CN2C(=O)[C@@H](NC(=O)[C@H](Cc2ccccc2)NC(C)=O)CCCNC1=O` (stereo partly drawn) [Compound 6, Ac-Phe-[Orn-Hyp(CONH—CH2CH(OH)—CH2OH)-cha-Trp-Nle]] (Ac-F[Orn][Hyp]([CO-NHCH2CH(OH)CH2OH])[dCha]W[Nle]; lactam 2-C): the IC50 under setting [1] was 50 to 200 nM.

With `CC(=O)N[C@@H](Cc1ccccc1)C(=O)N[C@H]1CCCNC(=O)[C@H](CCCNC2=NCCN2)NC(=O)[C@H](Cc2c[nH]c3ccccc23)NC(=O)[C@@H](CC2CCCCC2)NC(=O)[C@@H]2CCCN2C1=O` [Compound 7, Ac-Phe-[Orn-Pro-cha-Trp-Arg(CH2CH2)]], the IC50 under setting [1] was 200 to 2000 nM.

As to `CC(=O)N[C@@H](Cc1ccccc1)C(=O)N[C@H]1CCCNC(=O)[C@H](CCCNC(N)=O)NC(=O)[C@H](Cc2c[nH]c3ccccc23)NC(=O)[C@@H](CC2CCCCC2)NC(=O)[C@@H]2CCCN2C1=O` [Compound 10, Ac-Phe-[Orn-Pro-cha-Trp-Cit], reference compound], the IC50 under setting [1] was in the range of 200 to 2000 nM.

Consider `CC(=O)N[C@@H](Cc1ccccc1)C(=O)N[C@H]1CCCNC(=O)[C@H](Cc2ccc(N)cc2)NC(=O)[C@H](Cc2c[nH]c3ccccc23)NC(=O)[C@@H](CC2CCCCC2)NC(=O)[C@@H]2CCCN2C1=O` [Compound 14, Ac-Phe-[Orn-Pro-cha-Trp-Paf]] (Ac-F[Orn]P[dCha]W[Phe(4-NH2)]; lactam 2-C (inferred)), for which the “inhibitory activity (in words)” value is reported as “noteworthy inhibitory activity”. For the same compound, under setting [1], the IC50 fell in the range of 20 to 50 nM. Besides, the IC50 (functional assay of example 11, values in text, read-out: IC50) turned out to be 30 nM.

With `CC(=O)N[C@@H](Cc1ccccc1)C(=O)N[C@H]1CCCNC(=O)[C@H](Cc2cn(C)cn2)NC(=O)[C@H](Cc2c[nH]c3ccccc23)NC(=O)[C@@H](CC2CCCCC2)NC(=O)[C@@H]2CCCN2C1=O` [Compound 20, Ac-Phe-[Orn-Pro-cha-Trp-Ecr]] (Ac-F[Orn]P[dCha]W[His(τ-Me)]; lactam 2-C), the “inhibitory activity (in words)” value is on record as “noteworthy inhibitory activity”. Also, the IC50 under setting [1] was 50 to 200 nM.

For `CC(=O)N[C@@H](Cc1ccccc1)C(=O)N[C@H]1CCCNC(=O)[C@H](CCCCN)NC(=O)[C@H](Cc2c[nH]c3ccccc23)NC(=O)[C@@H](CC2CCCCC2)NC(=O)[C@@H]2CCCN2C1=O` [Compound 22] (Ac-F[Orn]P[dCha]WK; lactam 2-C (inferred)), the IC50 under setting [1] was > 2000 nM.

`CSCC[C@@H]1NC(=O)[C@H](Cc2c[nH]c3ccccc23)NC(=O)[C@@H](CC2CCCCC2)NC(=O)[C@@H]2CCCN2C(=O)[C@@H](NC(=O)[C@H](Cc2ccccc2)NC(C)=O)CCCNC1=O` [Compound 29, Ac-Phe-[Orn-Pro-cha-Trp-Met]] (Ac-F[Orn]P[dCha]WM; lactam 2-C): the “inhibitory activity (in words)” value is recorded as “without significant loss of activity”. For the same compound, under setting [1], the IC50 lay within 50 to 200 nM. The “inhibitory activity (in words)” value (listed as Ac-Phe-[Orn-Pro-cha-Trp-Met]) is “noteworthy inhibitory activity”.

`CCC[C@@H]1NC(=O)[C@H](Cc2c[nH]c3ccccc23)NC(=O)[C@@H](CC2CCCCC2)NC(=O)[C@@H]2CCCN2C(=O)[C@@H](NC(=O)[C@H](Cc2ccccc2)NC(C)=O)CCCNC1=O` [Compound 31, Ac-Phe-[Orn-Pro-cha-Trp-Nva]] (Ac-F[Orn]P[dCha]W[Nva]; lactam 2-C): the “inhibitory activity (in words)” value is “without significant loss of activity”. Besides, the IC50 under setting [1] lay within 10 to 20 nM. Where the note is “listed as Ac-Phe-[Orn-Pro-cha-Trp-Nva]”, the “inhibitory activity (in words)” value is given as “noteworthy inhibitory activity”.

As for `CC(=O)N[C@@H](Cc1ccccc1)C(=O)N[C@H]1CCCNC(=O)[C@H](CCC(C)C)NC(=O)[C@H](Cc2c[nH]c3ccccc23)NC(=O)[C@@H](CC2CCCCC2)NC(=O)[C@@H]2CCCN2C1=O` [Compound 32, Ac-Phe-[Orn-Pro-cha-Trp-Hle]] (Ac-F[Orn]P[dCha]W[hLeu]; lactam 2-C), the “inhibitory activity (in words)” value was “without significant loss of activity”. The IC50 under setting [1] was 20 to 50 nM. Also, the “inhibitory activity (in words)” value (listed as Ac-Phe-[Orn-Pro-cha-Trp-Hle]) is on record as “noteworthy inhibitory activity”.

With `CCSC[C@@H]1NC(=O)[C@H](Cc2c[nH]c3ccccc23)NC(=O)[C@@H](CC2CCCCC2)NC(=O)[C@@H]2CCCN2C(=O)[C@@H](NC(=O)[C@H](Cc2ccccc2)NC(C)=O)CCCNC1=O` [Compound 34, Ac-Phe-[Orn-Pro-cha-Trp-Ebd]] (Ac-F[Orn]P[dCha]WC(Et); lactam 2-C), the “inhibitory activity (in words)” value is “without significant loss of activity”. The IC50 under setting [1] lay within 20 to 50 nM. Besides, for the setting “listed as Ac-Phe-[Orn-Pro-cha-Trp-Ebd]”, the “inhibitory activity (in words)” value is on record as “noteworthy inhibitory activity”.

As for `C#CC[C@@H]1NC(=O)[C@H](Cc2c[nH]c3ccccc23)NC(=O)[C@@H](CC2CCCCC2)NC(=O)[C@@H]2CCCN2C(=O)[C@@H](NC(=O)[C@H](Cc2ccccc2)NC(C)=O)CCCNC1=O` [Compound 35, Ac-Phe-[Orn-Pro-cha-Trp-Eag]] (Ac-F[Orn]P[dCha]W[Pra]; lactam 2-C), the “inhibitory activity (in words)” value is reported as “without significant loss of activity”. In addition, the IC50 under setting [1] was in the range of 5 to 10 nM. Also, the “inhibitory activity (in words)” value (listed as Ac-Phe-[Orn-Pro-cha-Trp-Eag]) is recorded as “noteworthy inhibitory activity”.

With `CC(=O)N[C@@H](Cc1ccccc1)C(=O)N[C@H]1CCCNC(=O)[C@H](Cc2ccc(C)cc2)NC(=O)[C@H](Cc2c[nH]c3ccccc23)NC(=O)[C@@H](CC2CCCCC2)NC(=O)[C@@H]2CCCN2C1=O` [Compound 36, Ac-Phe-[Orn-Pro-cha-Trp-Pmf]] (Ac-F[Orn]P[dCha]W[Phe(4-Me)]; lactam 2-C), the “inhibitory activity (in words)” value is reported as “without significant loss of activity”. Besides, the IC50 under setting [1] was in the range of 20 to 50 nM. The “inhibitory activity (in words)” value (listed as Ac-Phe-[Orn-Pro-cha-Trp-Pmf]) is “noteworthy inhibitory activity”.

Turning to `CC(=O)N[C@@H](Cc1ccccc1)C(=O)N[C@H]1CCCNC(=O)[C@H](Cc2ccc3ccccc3c2)NC(=O)[C@H](Cc2c[nH]c3ccccc23)NC(=O)[C@@H](CC2CCCCC2)NC(=O)[C@@H]2CCCN2C1=O` [Compound 37, Ac-Phe-[Orn-Pro-cha-Trp-2Ni]] (Ac-F[Orn]P[dCha]W[2Nal]; lactam 2-C), the “inhibitory activity (in words)” value is recorded as “without significant loss of activity”. Moreover, the IC50 under setting [1] fell in the range of 50 to 200 nM. Besides, the “inhibitory activity (in words)” value (listed as Ac-Phe-[Orn-Pro-cha-Trp-2Ni]) is “noteworthy inhibitory activity”.

Source of the values: US20080161232A1, “C5a Receptor Antagonist” (JERINI AG, priority 2005, published 2008).
